Measured values: patent publication US20220315567A1 (priority 2016, published 2022)
Values joined by “and” are separate entries in the source; they are usually repeats but may differ in a detail not shown here. Equal entries are not always repeated. Structures can show the parent of a compound that is named as a salt. Where two headings read alike, the source gives them in different places.

Legend:
[1] = target: T1, human OPRM1 (μ, MOR) (Homo sapiens, UniProt P35372); test: cell-based; conditions: for EC50: PathHunter human OPRM1 Arrestin CHO-K1 cell line, read-out: β-Arrestin EC50; for Emax: OPRM1, read-out: β-Arrestin Emax
T1 construct: host or cells: CHO-K1
T1 sequence (P35372 whole entry): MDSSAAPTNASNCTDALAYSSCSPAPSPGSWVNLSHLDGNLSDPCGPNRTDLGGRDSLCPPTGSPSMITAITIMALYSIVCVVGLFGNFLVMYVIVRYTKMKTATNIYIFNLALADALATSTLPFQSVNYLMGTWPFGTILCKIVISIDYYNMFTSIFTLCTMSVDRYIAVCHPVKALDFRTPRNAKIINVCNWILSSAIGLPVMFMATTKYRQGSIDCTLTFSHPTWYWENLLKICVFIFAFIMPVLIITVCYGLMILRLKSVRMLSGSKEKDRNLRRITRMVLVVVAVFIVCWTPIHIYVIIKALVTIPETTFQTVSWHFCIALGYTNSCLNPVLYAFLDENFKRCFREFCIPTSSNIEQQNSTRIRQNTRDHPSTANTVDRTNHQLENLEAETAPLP
Experimental: The Discoverx PathHunter® β-Arrestin assay is used to measure β-arrestin-2 activity. The technology is based on Enzyme Fragment Complementation (EFC) with β-galactosidase (β-Gal) as the reporter. […] EA is fused to Q-arrestin-2, and ED is fused to the C-terminus of the GPCR of interest. When a ligand binds and the GPCR is activated, Q-arrestin-2 is recruited to the receptor resulting in an ED/EA complementation, restoring f-Gal activity, which is measured using chemiluminescence. For this assay, the PathHunter human OPRM1 (μ, MOR) Arrestin CHO-K1 cell line was used.

[2] = target: T1, human OPRM1 (μ, MOR); test: cell-based; conditions: for Emax: OPRM1, read-out: cAMP Emax; for EC50: PathHunter human OPRM1 Arrestin CHO-K1 cell line, read-out: cAMP EC50
Experimental: G-protein signaling was measured via second messenger cAMP modulation. Detection of cAMP modulation was accomplished in the PathHunter human OPRM1 (μ, MOR) Arrestin CHO-K1 cell line using the Dynamic2 cAMP Kit from Cisbio.

[3] = target: T1, human OPRM1 (μ, MOR); assay type: cell-based; conditions: for ΔRA of compound: relative activity from EC50 and Emax of β-arrestin vs cAMP, lower RA = more G-protein biased
Experimental: In certain embodiments, the ability of a compound to activate G-protein or β-arrestin is not an on/off switch for a given pathway, but rather a continuous function. To capture this, each compound is measured for activity in cell assays that are linked to β-arrestin recruitment and G-protein signaling. By comparing the activity between these two measures (accounting for both EC50 and maximal response reached, Emax) a relative activity (RA) value is determined.
In the case of MOR it is desirable to have high activation of the G-protein pathway while reducing activation of β-arrestin. In the case of the formula above, this means a lower RA.

Row | Structure (SMILES) | β-Arrestin Emax [1] [%] | EC50 [1] | Emax [2] [%] | EC50 [2] | Bias Factor (ΔRA of compound relative to ΔRA of DAMGO) × 10 [3] | ΔRA of compound [3] | Emax [1] [%] | cAMP Emax [2] [%] | β-Arrestin Emax ([1]; hydrochloride) | cAMP Emax ([2]; hydrochloride) | Bias Factor (ΔRA of compound relative to ΔRA of DAMGO) × 10 ([3]; hydrochloride) | ΔRA of compound ([3]; hydrochloride)
1 | CNC(CNC(=O)N1Cc2ccc(F)cc2C1)c1ccc(OC)cc1 (stereo not drawn) [Compound 82] | 2.7 | > 100000 nM | 83.2 | 457 nM | <−14.83 | <−2.96 | – | – | – | – | – | –
2 | CN(C)C(CNC(=O)N1Cc2ccc(F)cc2C1)c1ccccc1 (stereo not drawn) [Compound 20a, N-(2-(Dimethylamino)-2-phenylethyl)-5-fluoroisoindoline-2-carboxamide hydrochloride] | – | > 100000 nM | 70.8 | 31 nM | <−14.83 | <−2.96 | 3.65 | – | – | – | – | –
3 | CN(C)C(CNC(=O)N[C@H]1CCc2ccccc2C1)c1ccsc1 (stereo partly drawn) [Compound 52] | <1 | > 100000 nM | – | 227 nM | <−14.83 | <−2.96 | – | 12.2 | – | – | – | –
4 | CN(C)C(CNC(=O)N1Cc2cccc(F)c2C1)c1ccsc1 (stereo not drawn) [Compound 3a, N-(2-(Dimethylamino)-2-(thiophen-3-yl)ethyl)-4-fluoroisoindoline-2-carboxamide hydrochloride] | – | 310 nM | 94.2 | 14 nM | −5.07 | −1.99 | 21.9 | – | – | – | – | –
5 | CN(C)[C@@H](CCNC(=O)N1Cc2ccc(F)cc2C1)c1ccsc1 [Compound 30-S, (S)—N-(3-(Dimethylamino)-3-(thiophen-3-yl)propyl)-5-fluoroisoindoline-2-carboxamide] | – | > 100000 nM | 96.1 | 688 nM | <−14.83 | <−2.96 | 9.9 | – | – | – | – | –
6 | COc1ccc(C(CNC(=O)N2CC[C@H](c3ccccc3)C2)N(C)C)cc1 (stereo partly drawn) [Compound 43] | – | > 100000 nM | 54.2 | 1720 nM | <−14.83 | <−2.96 | < 1 | – | – | – | – | –
7 | CN(C)C(CNC(=O)N1Cc2ccc(F)cc2C1)c1ccsc1 (single isomer, unassigned; (-)) [2a-ent-(−), (−)-N-(2-(Dimethylamino)-2-(thiophen-3-yl)ethyl)-5-fluoroisoindoline-2-carboxamide hydrochloride] | – | > 100000 nM | – | 12 nM and 15 nM | – | – | – | – | <1% | 55.5, 30.4% | <−14.83 | <−2.96
8 | CNC(CNC(=O)N1Cc2ccccc2C1)c1ccccc1 (single isomer, unassigned; (-)) [Compound 38-ent-A, (−)-N-(2-(Methylamino)-2-phenylethyl)isoindoline-2-carboxamide] | – | > 100000 nM | 81.6 | 379 nM | <−14.83 | <−2.96 | 3.7 | – | – | – | – | –
9 | CNC(CNC(=O)N1Cc2ccccc2C1)c1ccccc1 (single isomer, unassigned) [Compound 38-ent-B, (+)—N-(2-(Methylamino)-2-phenylethyl)isoindoline-2-carboxamide] | 5.9 | > 100000 nM | – | 840 nM | <−14.83 | <−2.96 | – | 97.6 | – | – | – | –
10 | CN(C)C(CNC(=O)N[C@@H]1CCc2ccc(O)cc2C1)c1ccsc1 (stereo partly drawn) [Compound 50] | – | > 100000 nM | 48.3 | 36 nM | <−14.83 | <−2.96 | < 1 | – | – | – | – | –
11 | CN(C)[C@H](CCNC(=O)N1Cc2ccc(F)cc2C1)c1ccsc1 [Compound 30-R, (R)—N-(3-(Dimethylamino)-3-(thiophen-3-yl)propyl)-5-fluoroisoindoline-2-carboxamide] | – | 5730 nM | 109 | 603 nM | −5.73 | −2.05 | 9.2 | – | – | – | – | –
12 | CN(C)C(CNC(=O)N1Cc2ccc(F)cc2C1)c1ccsc1 (single isomer, unassigned) [2a-ent-(+), (+)—N-(2-(Dimethylamino)-2-(thiophen-3-yl)ethyl)-5-fluoroisoindoline-2-carboxamide hydrochloride] | – | 1080 nM and 1010 nM | – | 18 nM and 58 nM | – | – | – | – | 6.57, 13.7% | 99.5, 95.4% | −9.24 | −2.40
13 | CN(C)C(CNC(=O)N(C)C1CCCc2ccccc21)c1ccsc1 (stereo not drawn) [Compound 13a, 3-(2-(Dimethylamino)-2-(thiophen-3-yl)ethyl)-1-methyl-1-(1,2,3,4-tetrahydronaphthalen-1-yl)urea hydrochloride] | – | 1680 nM | 95.3 | 68 nM | −8.39 | −2.3 | 11.3 | – | – | – | – | –
14 | CN(C)C(CNC(=O)N1Cc2ccccc2C1)c1ccccc1 (stereo not drawn) [Compound 18a, N-(2-(Dimethylamino)-2-phenylethyl)isoindoline-2-carboxamide hydrochloride] | – | 730 nM | 100 | 23 nM | – | – | 6.91 | – | – | – | −11.84 | −2.66
15 | CN(C)C(CNC(=O)N1Cc2ccccc2C1)c1ccccc1 (single isomer, unassigned) [Compound 58] | 35.2 | 1890 nM | – | 132 nM | −1.66 | −1.65 | – | 109.1 | – | – | – | –
16 | CNC(CNC(=O)N1Cc2ccc(F)cc2C1)c1ccsc1 (stereo not drawn) [Compound 35, 5-Fluoro-N-(2-(methylamino)-2-(thiophen-3-yl)ethyl)isoindoline-2-carboxamide] | – | > 100000 nM | 26.4 | 1170 nM | <−14.83 | <−2.96 | < 1 | – | – | – | – | –
17 | CNC(CNC(=O)N1Cc2cccc(F)c2C1)c1ccsc1 (stereo not drawn) [Compound 80] | 25.2 | 1400 nM | 103 | 41 nM | −6.64 | −2.14 | – | – | – | – | – | –
18 | CN(C)[C@H](CCNC(=O)N1CC[C@H](c2ccccc2)C1)c1ccsc1 [Compound 75] | – | 17000 nM | 114 | 2090 nM | −3.97 | −1.88 | 12.2 | – | – | – | – | –
19 | CN(C)C(CNC(=O)N[C@H]1CCc2ccccc2C1)c1ccsc1 (stereo partly drawn) [Compound 51] | <1 | > 100000 nM | – | 29 nM | <−14.83 | <−2.96 | – | 64.9 | – | – | – | –
